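Briefly, cells in 96-well plates were exposed to five compound concentrations for 48 h, and endpoints were estimated by linear interpolation. At the GI50, growth is halved. TGI is the concentration that stops growth completely.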
Tests used:
Test in all cases: DTP human tumour cell line panel, 48 h
A549 NSCLC = test system: A549 NSCLC
U251 CNS = test system: U251 CNS
UACC-257 melanoma = test system: UACC-257 melanoma
EKVX NSCLC = test system: EKVX NSCLC
HS 578T breast = test system: HS 578T breast
SF-539 CNS = test system: SF-539 CNS
HOP-92 NSCLC = test system: HOP-92 NSCLC
HL-60(TB) leukemia = test system: HL-60(TB) leukemia
A498 renal = test system: A498 renal
MALME-3M melanoma = test system: MALME-3M melanoma
CAKI-1 renal = test system: CAKI-1 renal
SNB-75 CNS = test system: SNB-75 CNS
K-562 leukemia = test system: K-562 leukemia
IGROV1 ovarian = test system: IGROV1 ovarian
SR leukemia = test system: SR leukemia
NCI-H522 lung = test system: NCI-H522 lung
HOP-62 NSCLC = test system: HOP-62 NSCLC
SK-MEL-28 melanoma = test system: SK-MEL-28 melanoma
HCT-15 colon = test system: HCT-15 colon
HT29 colon = test system: HT29 colon
OVCAR-5 ovarian = test system: OVCAR-5 ovarian
NCI-H226 lung = test system: NCI-H226 lung
TK-10 renal = test system: TK-10 renal
OVCAR-4 ovarian = test system: OVCAR-4 ovarian
SK-MEL-2 melanoma = test system: SK-MEL-2 melanoma
T-47D breast = test system: T-47D breast
ACHN renal = test system: ACHN renal
SN12C renal = test system: SN12C renal
786-0 renal = test system: 786-0 renal
HCC-2998 colon = test system: HCC-2998 colon
DU-145 prostate = test system: DU-145 prostate
RXF 393 renal = test system: RXF 393 renal
NCI-H23 lung = test system: NCI-H23 lung
SF-268 CNS = test system: SF-268 CNS
MOLT-4 leukemia = test system: MOLT-4 leukemia
MCF7 breast = test system: MCF7 breast
SNB-19 CNS = test system: SNB-19 CNS
MDA-MB-231 breast = test system: MDA-MB-231 breast
SF-295 CNS = test system: SF-295 CNS
OVCAR-3 ovarian = test system: OVCAR-3 ovarian
NCI-H460 lung = test system: NCI-H460 lung
PC-3 prostate = test system: PC-3 prostate
COLO 205 colon = test system: COLO 205 colon
SW-620 colon = test system: SW-620 colon
RPMI-8226 leukemia = test system: RPMI-8226 leukemia
UO-31 renal = test system: UO-31 renal
UACC-62 melanoma = test system: UACC-62 melanoma
SK-OV-3 ovarian = test system: SK-OV-3 ovarian
OVCAR-8 ovarian = test system: OVCAR-8 ovarian
LOX IMVI melanoma = test system: LOX IMVI melanoma
MDA-MB-435 = test system: MDA-MB-435
SK-MEL-5 melanoma = test system: SK-MEL-5 melanoma
BT-549 breast = test system: BT-549 breast
HCT-116 colon = test system: HCT-116 colon
M14 melanoma = test system: M14 melanoma
KM12 colon = test system: KM12 colon

Compound `COc1cccc(/C=C/C(=O)c2cc3c(N)c(C(=O)Nc4ccccc4)sc3nc2C)c1` has a GI50 (A549 NSCLC) of 1510 nM, a TGI (A549 NSCLC) of 6230 nM and a GI50 (U251 CNS) of 897 nM. For the same compound, the TGI (U251 CNS) was 1720 nM, the GI50 (UACC-257 melanoma) was 1900 nM and the TGI (UACC-257 melanoma) was 8970 nM. For the same compound, the GI50 (EKVX NSCLC) was 5800 nM, the TGI (EKVX NSCLC) was 13100 nM and the GI50 (HS 578T breast) was 1920 nM. The TGI (HS 578T breast) was > 50000 nM, the GI50 (SF-539 CNS) was 957 nM and the TGI (SF-539 CNS) was 1840 nM. It also gave a GI50 (HOP-92 NSCLC) of 1080 nM, a TGI (HOP-92 NSCLC) of 4240 nM and a GI50 (HL-60(TB) leukemia) of 1020 nM. It also gave a TGI (HL-60(TB) leukemia) of 2720 nM, a GI50 (A498 renal) of 1180 nM and a TGI (A498 renal) of 4410 nM. The GI50 (MALME-3M melanoma) was 2030 nM, the TGI (MALME-3M melanoma) was 15000 nM and the GI50 (CAKI-1 renal) was 933 nM. For the same compound, the TGI (CAKI-1 renal) was 1910 nM, the GI50 (SNB-75 CNS) was 889 nM and the TGI (SNB-75 CNS) was > 50000 nM. For the same compound, the GI50 (K-562 leukemia) was 1470 nM, the TGI (K-562 leukemia) was > 50000 nM and the GI50 (IGROV1 ovarian) was 954 nM. The TGI (IGROV1 ovarian) was 2000 nM, the GI50 (SR leukemia) was 1280 nM and the TGI (SR leukemia) was 6460 nM. It also gave a GI50 (NCI-H522 lung) of 1060 nM, a TGI (NCI-H522 lung) of 3080 nM and a GI50 (HOP-62 NSCLC) of 1090 nM. The TGI (HOP-62 NSCLC) was 2440 nM, the GI50 (SK-MEL-28 melanoma) was 1720 nM and the TGI (SK-MEL-28 melanoma) was 6450 nM. For the same compound, the GI50 (HCT-15 colon) was 1160 nM, the TGI (HCT-15 colon) was 3370 nM and the GI50 (HT29 colon) was 1210 nM. It also gave a TGI (HT29 colon) of 3420 nM, a GI50 (OVCAR-5 ovarian) of 1280 nM and a TGI (OVCAR-5 ovarian) of 4610 nM. For the same compound, the GI50 (NCI-H226 lung) was 1150 nM, the TGI (NCI-H226 lung) was 2750 nM and the GI50 (TK-10 renal) was 1560 nM. For the same compound, the TGI (TK-10 renal) was 5470 nM, the GI50 (OVCAR-4 ovarian) was 1780 nM and the TGI (OVCAR-4 ovarian) was > 50000 nM. It also gave a GI50 (SK-MEL-2 melanoma) of 1750 nM, a TGI (SK-MEL-2 melanoma) of 8630 nM and a GI50 (T-47D breast) of 1240 nM. It also gave a TGI (T-47D breast) of 3890 nM, a GI50 (ACHN renal) of 971 nM and a TGI (ACHN renal) of 1860 nM. The GI50 (SN12C renal) was 1120 nM, the TGI (SN12C renal) was 2780 nM and the GI50 (786-0 renal) was 802 nM. For the same compound, the TGI (786-0 renal) was 1720 nM, the GI50 (HCC-2998 colon) was 901 nM and the TGI (HCC-2998 colon) was 1660 nM. The GI50 (DU-145 prostate) was 1390 nM, the TGI (DU-145 prostate) was 4370 nM and the GI50 (RXF 393 renal) was 837 nM. For the same compound, the TGI (RXF 393 renal) was 1710 nM, the GI50 (NCI-H23 lung) was 1200 nM and the TGI (NCI-H23 lung) was 3050 nM. It also gave a GI50 (SF-268 CNS) of 1470 nM, a TGI (SF-268 CNS) of 5820 nM and a GI50 (MOLT-4 leukemia) of 1590 nM. The TGI (MOLT-4 leukemia) was > 50000 nM, the GI50 (MCF7 breast) was 1690 nM and the TGI (MCF7 breast) was 8850 nM. For the same compound, the GI50 (SNB-19 CNS) was 1520 nM, the TGI (SNB-19 CNS) was 5580 nM and the GI50 (MDA-MB-231 breast) was 1790 nM. The TGI (MDA-MB-231 breast) was 11700 nM, the GI50 (SF-295 CNS) was 6270 nM and the TGI (SF-295 CNS) was > 50000 nM. It also gave a GI50 (OVCAR-3 ovarian) of 1180 nM, a TGI (OVCAR-3 ovarian) of 3320 nM and a GI50 (NCI-H460 lung) of 1100 nM. The TGI (NCI-H460 lung) was 2470 nM, the GI50 (PC-3 prostate) was 1470 nM and the TGI (PC-3 prostate) was 5060 nM. It also gave a GI50 (COLO 205 colon) of 1540 nM, a TGI (COLO 205 colon) of 4710 nM and a GI50 (SW-620 colon) of 1120 nM. The TGI (SW-620 colon) was 3090 nM, the GI50 (RPMI-8226 leukemia) was 1180 nM and the TGI (RPMI-8226 leukemia) was 2540 nM. It also gave a GI50 (UO-31 renal) of 842 nM, a TGI (UO-31 renal) of 1620 nM and a GI50 (UACC-62 melanoma) of 943 nM. For the same compound, the TGI (UACC-62 melanoma) was 2190 nM, the GI50 (SK-OV-3 ovarian) was 4960 nM and the TGI (SK-OV-3 ovarian) was 19800 nM. The GI50 (OVCAR-8 ovarian) was 1630 nM, the TGI (OVCAR-8 ovarian) was > 50000 nM and the GI50 (LOX IMVI melanoma) was 887 nM. For the same compound, the TGI (LOX IMVI melanoma) was 1640 nM, the GI50 (MDA-MB-435) was 989 nM and the TGI (MDA-MB-435) was 2860 nM. It also gave a GI50 (SK-MEL-5 melanoma) of 1480 nM, a TGI (SK-MEL-5 melanoma) of 5530 nM and a GI50 (BT-549 breast) of 1190 nM. The TGI (BT-549 breast) was 4060 nM, the GI50 (HCT-116 colon) was 838 nM and the TGI (HCT-116 colon) was 1580 nM. For the same compound, the GI50 (M14 melanoma) was 1270 nM, the TGI (M14 melanoma) was 3520 nM and the GI50 (KM12 colon) was 988 nM. The TGI (KM12 colon) was 2230 nM.

Reference: PubChem BioAssay (NCI)
